Experimental data taken from PMC8586700 (Frontiers in Pharmacology, 2021).
Like-named read-outs stand apart in the source and are kept apart here.

Tests used:
[1] = Repeated administration, drug concentrations of plasma and brain; format: in vivo, SD rats; settings: for Detection in brain tissue: after repeated administration; for Mean concentrations±sd in brain after multiple doses: brain homogenate; for Effect on plasma concentration of DHC: repeated administration with CUR
Method: (§1) Plasma or brain homogenate of SD rats was taken 50 μL, internal standard solution of 50 μL and protein precipitator of 150 μL were added. After eddy oscillation for 3 min, supernatant was separated by centrifugation.
The concentration of drugs in plasma and brain homogenate after repeated administration was determined according to the same grouping and administration method. The loading dose of 200 mg kg^−1 was given for the first time and half doses for four consecutive days.
(§2) Plasma was collected by centrifugation of blood at 3000 RPM for 10min, and stored at -80 °C. Brain tissue of SD rat was dissected, weighed and added with normal saline at a volume of 2 ml g^−1. After homogenating brain tissue for 3 min by a homogenizer at 14,000 RPM, the supernatant was collected after centrifugation at 12,000 RPM for 10 min.

[2] = Solubility in solvents and vehicles; format: physicochemical
Excerpt: DMSO is a universal organic solvent that is mutually soluble with most solvents and has a protective effect on red blood cells, platelets, bone marrow and various tissue cells during cryopreservation ([Willson et al., 1965]).

[3] = Stability experiment in plasma and brain homogenate samples; format: in vitro ADME, SD rats; settings: for Recoveries after being kept at room temperature for 12 h: plasma samples
Method: Three blank samples of plasma and brain homogenate of SD rats were added into the mixed standard solution. The stability experiment included placing at room temperature for 12 h, repeatedly freeze-thaw for three times and frozen for 15 days.

[4] = set-up: method as in Yang et al., 2007; settings: ref Yang et al., 2007; cited from earlier work
rats = tested on: rats; set-up: method as in Willson et al., 1965; settings: intragastric administration, ref Willson et al., 1965; cited from earlier work
[5] = Pharmacokinetic experiment, single intragastric administration, plasma by HPLC-UV; format: in vivo, SD rats; settings: for concentration at 40 min / concentration at 60 min / concentration at 90 min / concentration at 150 min / concentration at 210 min: SD (Sprague-Dawley); for concentration at 40 min / concentration at 60 min / concentration at 90 min / concentration at 150 min / concentration at 210 min / concentration at 20 min / concentration at 270 min / concentration at 330 min / AUC / Cmax / half-life / Tmax: rat, plasma, po; for concentration at 20 min / concentration at 270 min / concentration at 330 min: SD; for AUC / Cmax / half-life / Tmax: Sprague-Dawley, 150 mg/kg, PIP or ILE 150 mg kg^−1 oral together with CUR 200 mg kg^−1; for AUC: read-out: AUC(0-tn) (converted); for Cmax: read-out: Cmax; for half-life: read-out: T1/2(el); for Tmax: read-out: Tmax (converted); for Effect of combined administration with CUR on plasma concentration of DHC: single administration, drug-time curve
Method: An Agilent 1200 HPLC system was used. […] The flow rate was set at 1 ml min^−1 and detection wavelength was 420, 340 and 323 nm. Injection volume was 5 μL. The column temperature was set at 30°C.
as §1
Blood samples were collected from tail vein at 20 min, 40 min, 1, 1.5, 2.5, 3.5, 4.5, and 5.5 h after intragastric administration.
as §2

[6] = ILE compared with PIP at the same dose
[7] = Mean concentrations ±sd, ILE, Group C (CUR 200 mg kg^−1 and ILE 150 mg kg^−1 oral)
[8] = Group B (CUR 200 mg kg^−1 and PIP 150 mg kg^−1 oral), read-out: Mean concentrations ±sd, PIP

Structure (SMILES) | Detection in brain tissue [1] | Solubility in DMSO [2] | Recoveries after repeated freezing-thawing for three times ([3]; brain homogenate) | Recoveries after repeated freezing-thawing for three times ([3]; plasma) | Recoveries after being kept at room temperature for 12 h [3] | Mean concentrations±sd in brain after multiple doses [1] [ng/mL] | Effect on plasma concentration of DHC [1] | AUC [5] [ng·h/mL] | Cmax [5] [ng/mL] | half-life [5] [h] | Tmax [5] [h] | Effect of combined administration with CUR on plasma concentration of DHC [5] | also measured
COc1cc(/C=C/C(=O)CC(=O)/C=C/c2ccc(O)c(OC)c2)ccc1O [CUR, Curcumin] | could not be detected | well dissolved | over 100% | over 100% | less than 30% | – | – | – | – | – | – | – | Solubility in EtOH and glycerin [2]: slightly soluble; Solubility in water and various plant extracted oils [2]: insoluble; recovery at 12 h ([3]; SD, rat, brain homogenate samples, read-out: Recovery after 12 h placement at room temperature): < 15%; Oral bioavailability [4]: 1%
C[S+](C)[O-] [DMSO, dimethyl sulfoxide] | – | – | – | – | – | – | – | – | – | – | – | – | Adverse reactions in the experimental animals ([1]; DMSO as solvent of intragastric administration for five consecutive days, SD rats): no adverse reactions occurred; LD50 (rats): 28300 mg/kg
O=C(/C=C/c1ccc2c(c1)OCO2)N1CCCCC1 [ILE, Ilepcimide, reference compound] | could be detected | well dissolved | over 100% | over 100% | – | 1600 ± 200 | could both increase the plasma concentration of DHC | 15400 | 5500 ± 2000 | 1.67 ± 0.287 | 3.07 | could increase plasma concentration of DHC | AUC(0-tn) increased by [5, 6]: 32.1%; T1/2 decreased by [5, 6]: 40.2%; Tmax increased by [5, 6]: 1.7 times; concentration at 40 min [5, 7]: 1600 ± 100 ng/mL; concentration at 60 min [5, 7]: 2000 ± 500 ng/mL; concentration at 90 min [5, 7]: 2800 ± 900 ng/mL; concentration at 150 min [5, 7]: 5500 ± 1900 ng/mL; concentration at 210 min [5, 7]: 3400 ± 500 ng/mL; concentration at 20 min [5, 7]: 1300 ± 800 ng/mL; concentration at 270 min [5, 7]: 2200 ± 400 ng/mL; concentration at 330 min [5, 7]: 1200 ± 800 ng/mL
O=C(/C=C/C=C/c1ccc2c(c1)OCO2)N1CCCCC1 [PIP, Piperine, reference compound] | could be detected | well dissolved | over 100% | over 100% | lower than 75% | 2100 ± 100 | could both increase the plasma concentration of DHC | 11700 | 4200 ± 700 | 2.79 ± 0.59 | 1.13 | no obvious effect | Mean concentrations±sd, PIP in plasma after multiple doses ([1]; Group II: CUR and PIP): 2400 ± 500 ng/mL; concentration at 40 min [5, 8]: 2100 ± 700 ng/mL; concentration at 60 min [5, 8]: 4200 ± 700 ng/mL; concentration at 90 min [5, 8]: 2600 ± 500 ng/mL; concentration at 150 min [5, 8]: 2400 ± 900 ng/mL; concentration at 210 min [5, 8]: 2200 ± 500 ng/mL; concentration at 20 min [5, 8]: 1400 ± 400 ng/mL; concentration at 270 min [5, 8]: 1700 ± 400 ng/mL; concentration at 330 min [5, 8]: 1400 ± 200 ng/mL; Recovery after 12 h placement at room temperature ([3]; brain homogenate samples): only showed slight decrease
